# System: 282377-053-R-J1-PDC complex spheroid viability
# Experiment: Anticancer human tumor 282377-053-R-J1-PDC patient-derived colon adenocarcinoma cell line growth inhibition [RAS]
# Conditions: for IC50: curve of first compound; for viability, T/C: stronger effect = lower value
# From the text: RAS pathway inhibitors in Combinations in Complex Spheroids
# A high-throughput screen of multi-cell type tumor spheroids was designed to identify active combinations of RAS pathway inhibitors and targeted small molecules. Complex spheroids include a stromal component modeled by human endothelial cells (HUVEC) and fibroblasts modeled by human mesenchymal stem cells (MSCs). The concentration ranges selected for each drug and investigational agent were based upon clinically achievable concentrations if the clinical Cmax of the agent was known.
# Compounds. The drugs and investigational agents: abemaciclib (NSC768073), cobimetinib (NSC768068), divarasib (GDC6063, NSC841802), docetaxel (NSC628503), GDC-1971 (RLY-1971, NSC841576), gemcitabine (NSC613327), inavolisib (NSC800729), ipatasertib (NSC767898), KB-0742 (NSC834161), MRTX-1133 (NSC836407), osimertinib (NSC779217), RMC-4630 (NSC839698), RMC-6236 (NSC851965), RMC-6291 (NSC852671), Ro-3306 (NSC812927), sapanisertib (NSC764658), SN-38 (NSC673596), staurosporine (NSC755774), SY5609 (NSC837396), and tovorafenib (DAY101, NSC766906), were obtained from the National Cancer Institute (NCI) Developmental Therapeutics Program Chemical Repository. The FDA-approved anticancer drug set is available from the NCI Developmental Therapeutics Program. […] The stock solutions were prepared in dimethyl sulfoxide (DMSO, Sigma-Aldrich, St. Louis, MO, cat. D2650) at 800-fold the tested concentration and stored at -70 degrees C prior to their use. All drugs and investigational agents were tested over a range starting from a high concentration at or near the clinical Cmax and decreasing in half-log increments. If the clinical Cmax for an agent had not been determined, the highest concentration tested was 10 microM.
# Cell Culture. All cells were maintained in an incubator at 37 degrees C and 5% CO2 with 95% humidity. The PDC lines were cultured according to standard operating procedures established by the NCI PDMR. All PDCs were thawed and cultured in Matrigel-coated flasks prepared with a working solution of 1X Ham's F-12 nutrient mix, without supplementation (Invitrogen, Waltham, MA, cat. 11765054), 100 U/mL penicillin-streptomycin (Invitrogen, cat. 15140122), and 2.5% Matrigel (Corning Inc., Corning, NY, cat. 354248) for the first three passages. The 362531-283-R-J2-PDC and 782815-120-R-J1-PDC lines were cultured in 6C/Colon 1B media, which includes advanced DMEM/F-12 (Thermo Fisher Scientific, cat. 12634028), 10 mM HEPES (Thermo Fisher Scientific, cat. 15630080), 1X GlutaMAX supplement (Thermo Fisher Scientific, cat. 35050061), 0.1 mg/mL primocin (InvivoGen, San Diego, CA, cat. ant-pm-2), 10% defined fetal bovine serum, heat inactivated (HyClone Laboratories Inc., Logan, UT, cat. SH30070.03HI), 50% L-WRN conditioned media (ATCC, cat. CRL-3276), 1.25 mM N-Acetyl-L-cysteine (Sigma-Aldrich, cat. A9165), 10 mM nicotinamide (Sigma-Aldrich, cat. N0636), 1X B-27 supplement (Thermo Fisher Scientific, cat. 17504044), 1X N-2 supplement (Thermo Fisher Scientific, cat. 17502048), 50 ng/mL human EGF (Thermo Fisher Scientific, cat. PHG0311), and 10 microM Y-27632 dihydrochloride (Tocris Bioscience, cat. 1254). The K12877-001-R-J1-PDC line was cultured in 6I media, which includes all 6C/Colon 1B media plus 10 ng/mL human FGF-10 (PeproTech, cat. 100-26), 1 ng/mL human FGF-2 (PeproTech, cat. 100-18B), 1 µM prostaglandin E2 (Tocris Bioscience, cat. 2296), […] hydrocortisone (Sigma-Aldrich, cat. H4001), and […] bovine insulin (Sigma-Aldrich, cat. I6634). The K86415-001-R-J1-PDC line was cultured in 6D media, which includes all 6C/Colon 1B media components minus the L-WRN conditioned media. The 485176-168-R4-J1-PDC was cultured in PANC media, which includes all 6C/Colon 1B media plus 100 ng/mL human FGF-10 (PeproTech, cat. 100-26), 500 nM SB-431542 (Selleckchem, cat. S1067), and 10 nM gastrin (Tocris Bioscience, cat. 3006). […]
# [1] = second compound 0.0316 µM, first compound 0.0316 µM
# [2] = second compound 0.0316 µM, first compound 0.1 µM
# [3] = second compound 0.1 µM, first compound 0.0316 µM
# [4] = second compound 0.1 µM, first compound 0.1 µM
# [5] = second compound 0.316 µM, first compound 0.0316 µM
# [6] = second compound 0.316 µM, first compound 0.1 µM
# [7] = second compound 1 µM, first compound 0.0316 µM
# [8] = second compound 1 µM, first compound 0.1 µM
# [9] = second compound 3.16 µM, first compound 0.0316 µM
# [10] = second compound 3.16 µM, first compound 0.1 µM
# [11] = second compound 10 µM, first compound 0.0316 µM
# [12] = second compound 10 µM, first compound 0.1 µM
# 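Note: spheroids exposed to agents for seven days before readout.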
# 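Throughout, for viability, T/C: luminescence viability as percent of DMSO vehicle control wells.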
smiles,measurement,setting,value
CC(C)n1nc(-c2ccc3oc(N)nc3c2)c2c(N)ncnc21 + C#Cc1c(F)ccc2cc(O)cc(-c3ncc4c(N5CC6CCC(C5)N6)nc(OCC56CCCN5CC(F)C6)nc4c3F)c12,IC50,second compound 0.0316 µM,> 100 nM
same,IC50,second compound 0.1 µM,> 100 nM
same,IC50,second compound 0.316 µM,88.1 nM
same,IC50,second compound 1 µM,> 100 nM
same,IC50,second compound 3.16 µM,78.3 nM
same,IC50,second compound 10 µM,> 100 nM
same,"viability, T/C","second compound 0.0316 µM, first compound 0.000316 µM",101%
same,"viability, T/C","second compound 0.0316 µM, first compound 0.001 µM",87.2%
same,"viability, T/C","second compound 0.0316 µM, first compound 0.00316 µM",105%
same,"viability, T/C","second compound 0.0316 µM, first compound 0.01 µM",77.5%
same,"viability, T/C",[1],72.7%
same,"viability, T/C",[2],56.9%
same,"viability, T/C","second compound 0.1 µM, first compound 0.000316 µM",115%
same,"viability, T/C","second compound 0.1 µM, first compound 0.001 µM",107%
same,"viability, T/C","second compound 0.1 µM, first compound 0.00316 µM",89%
same,"viability, T/C","second compound 0.1 µM, first compound 0.01 µM",77.7%
same,"viability, T/C",[3],66.6%
same,"viability, T/C",[4],50.2%
same,"viability, T/C","second compound 0.316 µM, first compound 0.000316 µM",99.8%
same,"viability, T/C","second compound 0.316 µM, first compound 0.001 µM",99.6%
same,"viability, T/C","second compound 0.316 µM, first compound 0.00316 µM",80.8%
same,"viability, T/C","second compound 0.316 µM, first compound 0.01 µM",71.1%
same,"viability, T/C",[5],69.4%
same,"viability, T/C",[6],45.3%
same,"viability, T/C","second compound 1 µM, first compound 0.000316 µM",104%
same,"viability, T/C","second compound 1 µM, first compound 0.001 µM",81.2%
same,"viability, T/C","second compound 1 µM, first compound 0.00316 µM",82.9%
same,"viability, T/C","second compound 1 µM, first compound 0.01 µM",66.4%
same,"viability, T/C",[7],75.9%
same,"viability, T/C",[8],46.8%
same,"viability, T/C","second compound 3.16 µM, first compound 0.000316 µM",87%
same,"viability, T/C","second compound 3.16 µM, first compound 0.001 µM",76%
same,"viability, T/C","second compound 3.16 µM, first compound 0.00316 µM",91.5%
same,"viability, T/C","second compound 3.16 µM, first compound 0.01 µM",81.1%
same,"viability, T/C",[9],76.3%
same,"viability, T/C",[10],42.8%
same,"viability, T/C","second compound 10 µM, first compound 0.000316 µM",108%
same,"viability, T/C","second compound 10 µM, first compound 0.001 µM",91.5%
same,"viability, T/C","second compound 10 µM, first compound 0.00316 µM",84.6%
same,"viability, T/C","second compound 10 µM, first compound 0.01 µM",72%
same,"viability, T/C",[11],52.7%
same,"viability, T/C",[12],60.7%
C[C@@H](NC(=O)c1ncnc(N)c1Cl)c1ncc(C(=O)Nc2cc(C(F)(F)F)c(Cl)cn2)s1 + C#Cc1c(F)ccc2cc(O)cc(-c3ncc4c(N5CC6CCC(C5)N6)nc(OCC56CCCN5CC(F)C6)nc4c3F)c12,IC50,second compound 0.0316 µM,> 10000 nM
same,IC50,second compound 0.1 µM,> 10000 nM
same,IC50,second compound 0.316 µM,> 10000 nM
same,IC50,second compound 1 µM,> 10000 nM
same,IC50,second compound 3.16 µM,> 10000 nM
same,IC50,second compound 10 µM,> 10000 nM
same,"viability, T/C",[1],121%
same,"viability, T/C",[2],99.5%
same,"viability, T/C","second compound 0.0316 µM, first compound 0.316 µM",89.2%
same,"viability, T/C","second compound 0.0316 µM, first compound 1 µM",86.5%
same,"viability, T/C","second compound 0.0316 µM, first compound 3.16 µM",87.1%
same,"viability, T/C","second compound 0.0316 µM, first compound 10 µM",78.5%
same,"viability, T/C",[3],103%
same,"viability, T/C",[4],111%
same,"viability, T/C","second compound 0.1 µM, first compound 0.316 µM",88.7%
same,"viability, T/C","second compound 0.1 µM, first compound 1 µM",76.7%
same,"viability, T/C","second compound 0.1 µM, first compound 3.16 µM",79.6%
same,"viability, T/C","second compound 0.1 µM, first compound 10 µM",93.5%
same,"viability, T/C",[5],105%
same,"viability, T/C",[6],112%
same,"viability, T/C","second compound 0.316 µM, first compound 0.316 µM",84.8%
same,"viability, T/C","second compound 0.316 µM, first compound 1 µM",91.2%
same,"viability, T/C","second compound 0.316 µM, first compound 3.16 µM",75.7%
same,"viability, T/C","second compound 0.316 µM, first compound 10 µM",71.7%
same,"viability, T/C",[7],104%
same,"viability, T/C",[8],86.6%
same,"viability, T/C","second compound 1 µM, first compound 0.316 µM",94.1%
same,"viability, T/C","second compound 1 µM, first compound 1 µM",67%
same,"viability, T/C","second compound 1 µM, first compound 3.16 µM",90.4%
same,"viability, T/C","second compound 1 µM, first compound 10 µM",77%
same,"viability, T/C",[9],79.9%
same,"viability, T/C",[10],101%
same,"viability, T/C","second compound 3.16 µM, first compound 0.316 µM",104%
same,"viability, T/C","second compound 3.16 µM, first compound 1 µM",77.5%
same,"viability, T/C","second compound 3.16 µM, first compound 3.16 µM",80.9%
same,"viability, T/C","second compound 3.16 µM, first compound 10 µM",80.3%
same,"viability, T/C",[11],91.3%
same,"viability, T/C",[12],102%
same,"viability, T/C","second compound 10 µM, first compound 0.316 µM",91.9%
same,"viability, T/C","second compound 10 µM, first compound 1 µM",85%
same,"viability, T/C","second compound 10 µM, first compound 3.16 µM",90.8%
same,"viability, T/C","second compound 10 µM, first compound 10 µM",86.9%

# — PubChem BioAssay AID2060905 (Molecular Pharmacology Branch, DTP, NCI, 2025)
